# Values of other authors in patent US11801275B2, “Compositions and methods for common colds” (M. ALPHABET 3, LLC, priority 2017, dated 2023).
# Read-outs that look alike come from different tables or passages of the source.
# Tests used:
# [1] = tested on: upper respiratory tract infections
smiles,measurement,setting,value
"O=C1O[C@H]([C@@H](O)CO)C(O)=C1O [vitamin C, ascorbic acid]",pooled risk ratio (RR) of developing a cold whilst taking vitamin C regularly,"common cold; five trials, 598 marathon runners, skiers and soldiers on subarctic exercises, 95% CI 0.35 to 0.64",0.48
same,pooled risk ratio (RR) of developing a cold whilst taking vitamin C regularly,"common cold; general community trials, 10,708 participants, 95% CI 0.94 to 1.00",0.97
same,effect on the duration or severity of colds,common cold; therapeutic trials,no consistent effect
C=C1CC[C@H](O)C/C1=C/C=C1\CCC[C@]2(C)[C@@H]([C@H](C)CCCC(C)C)CC[C@@H]12 [vitamin D3],mean level of 25-hydroxy vitamin D,"[1]; after oral vitamin D3 200,000 IU then 100,000 IU, increased from 29 (SD, 9) ng/mL, maintained throughout the study",greater than 48 ng/mL
same,"difference versus placebo in upper respiratory tract infections, days of missed work, duration and severity of symptoms",[1]; irrespective of season,no statistically significant difference
